Measurements taken from US20240018146A1, “COMPOSITIONS AND METHODS OF USING THE SAME FOR TREATMENT OF NEURODEGENERATIVE AND MITOCHONDRIAL DISEASE” (MITOKININ, INC., priority 2020, published 2024).
≈ marks a conversion by molar mass, not a printed value. Like-named read-outs stand apart in the source and are kept apart here.

How the values were obtained:
[1] = Kinetic solubility; assay type: physicochemical
[2] = Mitotoxicity / Mitotox safety margin (therapeutic window); assay type: cell-based
[3] = system: HeLa MKYP cells; experiment: Cell death measured by DAPI staining, with 1 μM FCCP/oligomycin or no toxin (no FO); assay type: cell-based
How it was run: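 Cell death was read by DAPI staining after 6–6.5 h compound exposure in HeLa MKYP cells, either with 1 μM FCCP/oligomycin or without toxin. H2O2 served as the cell-death control.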

[4] = system: HeLa MKYP cells; experiment: Human mitophagy assay (HeLa mKeima assay, FACS); assay type: cell-based; conditions: for EC50: Homo sapiens, HeLa
How it was run: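 Mitophagy, read by FACS as the share of cells showing the lysosomal mtKeima emission shift, followed 6 h of 1 uM FCCP/oligomycin stimulation. Before that, HeLa MKYP cells spent 16 h with compound over a concentration range.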

[5] = system: cleaved caspase-3; experiment: Cleaved caspase-3 levels in primary neuron culture; assay type: cell-based; conditions: compared with toxins
[6] = system: pS129 α-syn; experiment: Preformed fibril (PFF) model in primary neuron culture, pS129 α-syn; assay type: cell-based; conditions: increasing doses
Description: 4. Preformed Fibril Model
Mouse and human alpha-synuclein monomers have been sourced commercially, then pre-formed fibrils have been generated as per the detailed protocol provided by the MJFF. For in vitro experiments primary hippocampal neurons isolated from P0 pups were grown for 7 days after which PFFs at 5 ug/ml were introduced Pre-formed fibrils will be introduced via stereotactic injection into the striatum of wt (C57BL/6J, Jax #000664) and transgenic A53T mice (B6;C3-Tg(Prnp-SNCA*A53T)83Vle/J, Jax #004479). Cohorts of drug-treated (oral gavage) and untreated animals will then be allowed to age for up to 6 months, at which point they will be sacrificed and perfused. Brains will be removed and fixed, then sectioned for analysis. We anticipate that untreated A53T animals will show significant spreading of aggregated alpha-synuclein pathology and pS129 staining, as well as some possible neurodegeneration; wt animals are also expected to show pS129 synuclein staining and synuclein aggregation, albeit less than that seen in the A53T background.

[7] = HeLa mKeima assay, read-out: Mitophagy EC50 (HeLa mKeima assay)
[8] = read-out: Mitophagy induction EC50
[9] = mitophagy, 1 μM FCCP/oligomycin, read-out: E100 EC50
[10] = mitophagy, 1 μM FCCP/oligomycin

| SMILES | solubility kinetic [1] [µM] | Mitotox safety margin (Therapeutic window) [2] | Mito-Safety Index (highest safe dose/EC50) [2] | Highest safe dose (μM) (mitotox or cytotox) [2] [µM] | Max cell death at 25 μM compound, 1 uM FO (%) ([3]; 25 μM compound) | Cell death at 25 μM (no FO) (%) ([3]; 25 μM compound, no FO) | Highest safe dose (cytotoxicity; no FO; safe means DAPI+ <20%) ([3]; no FO) [µM] | Max % death with 1 μM FO [3] [%] | EC50 [4, 7] [µM] | EC50 [4, 8] [µM] | E103 max death with 1 μM FO [3] | E102 max mitophagy, fold over DMSO ([4]; 1 μM FCCP/oligomycin) [fold over DMSO] | EC50 [4, 9] [µM] | E101 lowest effective dose [4, 10] [µM] | other results |
| --- | --- | --- | --- | --- | --- | --- | --- | --- | --- | --- | --- | --- | --- | --- | --- |
| c1ccc2c(c1)CC[C@H](N1CCOCC1)[C@H]2Nc1ncnc2[nH]c(C3CC3)cc12 (racemic) [EP-0039677] | 1.56 (≈ 0.608 µg/mL) | ++++ (++++ = 30<) | 13.51 | 2.8 | 10.2 | 3.02 | 25.0 | 10.2 | 0.21 | 0.21 | – | – | – | – | – |
| FC(F)(F)c1cc2c(N[C@@H]3c4ccccc4CC[C@H]3N3CCOCC3)ncnc2[nH]1 (racemic) [EP-0037821] | 14.1 (≈ 5.89 µg/mL) | ++++ (++++ = 30<) | 22.05 | 8.3 | 71.62 | 41.03 | 13.9 | 68.5 | 0.4 | 0.38 | 62.82 | 9.53 | 0.45 | 0.30 | E105 death at 8.3 μM (no FO) ([3]; 8.3 μM compound, no FO): 2.87; E104 death at 25 μM (no FO) ([3]; 25 μM compound, no FO): 25.17 |
| FC(F)(F)c1cc2c(N[C@@H]3c4ccccc4CC[C@@H]3N3CCOCC3)ncnc2[nH]1 [EP-0037820] | 14.5 (≈ 6.05 µg/mL) | + (+ = <10) | – | – | 58 | 41.4 | 16.7 | 60.7 | 17.4 | 20.3 | – | – | – | – | – |
| Fc1ccc2c(c1)CC[C@H](N1CCOCC1)[C@H]2Nc1ncnc2[nH]c(C(F)(F)F)cc12 (single isomer, unassigned) [EP-0038503] | 1.56 (≈ 0.679 µg/mL) | ++ (++ = 10 < x < 20) | 17.40 | 8.3 | 8.15 | 2.53 | 25.0 | 6.3 | 0.38 | 0.48 | 4.37 | 5.11 | 0.58 | 8.33 | mitotoxicity ([2]; FIG. 5-7): low mitotoxicity; EC50 ([4]; average ± spread, read-out: E100 EC50 (μM) (average)): 0.48 ± 0.1 µM |
| FC(F)(F)c1cc2c(N[C@H]3c4ccccc4CC[C@@H]3N3C[C@H]4COC[C@H]4C3)ncnc2[nH]1 (single isomer, unassigned) [EP-0038582] | – | – | – | 25.0 | 5.87 | 3.77 | 25.0 | 4.3 | – | > 25 | – | – | – | – | solubility kinetic ([1]; kinetic from dmso stock): 1.56 µM (≈ 0.692 µg/mL); Mitophagy EC50 (HeLa mKeima assay) (μM) ([4]; HeLa mKeima assay): Minimal |
| FC(F)(F)c1cc2c(N[C@H]3c4ccccc4CC[C@@H]3N3C[C@@H]4COC[C@H]4C3)ncnc2[nH]1 (single isomer, unassigned) [EP-0040270] | – | – | – | – | – | – | – | – | – | – | – | – | – | – | cleaved caspase-3 levels [5]: increase cleaved caspase-3 levels; pS129 α-syn (250-12) in primary neuron culture [6]: reduces; pS129 α-syn (monomer) in primary neuron culture [6]: reduces; pS129 α-syn in primary neuron culture [6]: reduces |
